Source: patent publication US6472348B1, “Pyridone derivatives and herbicides” (Kumiai Chemical Industry Co., Ltd., priority 1996, dated 2002)

How the values were obtained:
green foxtail (Se) = assay: Test Example 5: crop plant selectivity by upland field soil treatment (wheat), herbicidal effects; type: in vivo; set-up: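 grade of growth control; 5 = at least 90%; 4 = 70 to 90%; 3 = 50 to 70%; 2 = 30 to 50%; 1 = 10 to 30%; 0 = under 10%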; settings: 21st day after application
How it was run: (§1)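 A greenhouse pot test in which wheat and weeds share sand-filled pots; after the soil application, damage is graded against set standards three weeks later.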

slender amaranth (Am) [1] = assay: as above; type: in vivo; set-up: scale not given here; settings: 21st day after application
How it was run: as §1

[2] = system: common lambsquarters (Ch); assay: as above; type: in vivo; set-up: scale not given here; settings: 21st day after application
How it was run: as §1

pale smartweed (Po) [3] = assay: as above; type: in vivo; set-up: scale not given here; settings: 21st day after application
How it was run: as §1

[4] = system: common lambsquarters (Ch); assay: Test Example 4: crop plant selectivity by upland field soil treatment (cotton), herbicidal effects; type: in vivo; set-up: scale not given here; settings: evaluated 21st day after application
How it was run: (§2)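 Cotton and weeds (incl. China jute, pale smartweed, slender amaranth) sown in sand-filled pots and covered with soil, then soil-treated. Grown in greenhouse; herbicidal effect and cotton phytotoxicity scored on day 21 after application against a rating standard.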

China jute (Ab) = assay: Test Example 9: crop plant selectivity by upland field foliage treatment (wheat), herbicidal effects; type: in vivo; set-up: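 grade of growth control; 5 = at least 90%; 4 = 70 to 90%; 3 = 50 to 70%; 2 = 30 to 50%; 1 = 10 to 30%; 0 = under 10%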; settings: dose 1.6 g ai/10a, 14th day after treatment
How it was run: (§3)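 Sand-filled pot, wheat + weeds co-sown; greenhouse 2 wk, then foliage treatment; greenhouse culture continued; visual scoring of weed control and crop injury at 14 d post-treatment per grading scale.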

slender amaranth (Am) [5] = assay: as above; type: in vivo; set-up: scale not given here; settings: dose 1.6 g ai/10a, 14th day after treatment
How it was run: as §3

[6] = system: common lambsquarters (Ch); assay: as above; type: in vivo; set-up: scale not given here; settings: dose 1.6 g ai/10a, 14th day after treatment
How it was run: as §3

pale smartweed (Po) [7] = assay: as above; type: in vivo; set-up: scale not given here; settings: dose 1.6 g ai/10a, 14th day after treatment
How it was run: as §3

cotton (Go) = assay: Test Example 4: crop plant selectivity by upland field soil treatment (cotton), phytotoxicity; type: in vivo; set-up: scale not given here; settings: evaluated 21st day after application
How it was run: as §2

corn (Ze) = assay: Test Example 11: crop plant selectivity by upland field foliage treatment (corn), phytotoxicity; settings: dose 1.6 g ai/10a
How it was run: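 Corn and the weed species were sown together in sand-filled pots and grown in a greenhouse for 2 weeks before foliar treatment. Herbicidal effect was scored on day 14 after treatment against a graded standard scale, with corn phytotoxicity scored alongside.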

[8] = upland field foliage treatment, 14th day after treatment

SMILES | Herbicidal effects Se (green foxtail (Se); dose 1.6 g ai/10a) | Herbicidal effects Am (slender amaranth (Am) [1]; dose 1.6 g ai/10a) | Herbicidal effects Ch ([2]; dose 1.6 g ai/10a) | Herbicidal effects Po (pale smartweed (Po) [3]; dose 1.6 g ai/10a) | Herbicidal effects Ch ([4]; dose 1.6 g ai/10 a) | Herbicidal effects Ch ([4]; dose 6.3 g ai/10 a) | Herbicidal effects Ab (China jute (Ab)) | Herbicidal effects Am (slender amaranth (Am) [5]) | Herbicidal effects Ch [6] | Herbicidal effects Po (pale smartweed (Po) [7]) | Phytotoxicity Go (cotton (Go); dose 1.6 g ai/10 a) | Phytotoxicity Go (cotton (Go); dose 6.3 g ai/10 a) | Herbicidal effects Se (green foxtail (Se); dose 6.3 g ai/10a) | Herbicidal effects Am (slender amaranth (Am) [1]; dose 6.3 g ai/10a) | Herbicidal effects Ch ([2]; dose 6.3 g ai/10a) | Herbicidal effects Po (pale smartweed (Po) [3]; dose 6.3 g ai/10a) | Phytotoxicity Ze (corn (Ze); [8]) | Phytotoxicity Ze (corn (Ze); corn, foliage treatment, evaluated on 14th day after treatment, index per Table 47)
C#CC(O)c1cc(-c2ccc(C(F)(F)F)n(C)c2=O)c(F)cc1Cl (centres unmarked) [Compound 1-202] | 5 | 5 | 5 | 5 | 5 | 5 | 5 | 5 | 5 | 5 | 1 | 1 |  |  |  |  |  | 
Cn1c(C(F)(F)F)ccc(-c2cc(Cl)c(Cl)cc2F)c1=O [1-136] | 5 | 5 | 5 | 5 |  | 5 |  |  |  |  |  | 1 | 5 | 5 | 5 | 5 |  | 
Cn1c(C(F)(F)F)ccc(-c2cc(C#N)c(Cl)cc2F)c1=O [Compound No. 1-119, 3-(4-chloro-5-cyano-2-fluorophenyl)-1-methyl-6-trifluoromethyl-2(1H)-pyridone] |  |  |  |  |  | 5 | 4 | 5 | 5 | 5 |  | 0 |  |  |  |  | 2 | 
Cn1c(C(F)(F)F)ccc(-c2cc(OCC#N)c(Cl)cc2F)c1=O [1-25] |  |  |  |  |  | 5 | 5 | 5 | 5 | 5 |  | 1 |  |  |  |  | 2 | 
Cn1c(C(F)(F)F)ccc(-c2cc(OCC3CC3)c(Cl)cc2F)c1=O [1-160] |  |  |  |  |  | 5 | 5 | 5 | 5 | 5 |  | 1 | 5 | 5 | 5 | 5 |  | 
C#CC(C)Oc1cc(-c2cn(C)c(C(F)(F)F)cc2=O)c(F)cc1Cl (racemic) [Compound 6-10] | 4 | 5 | 5 | 5 | 5 | 5 |  |  |  |  | 0 | 1 |  |  |  |  |  | 1
COCSc1cc(-c2ccc(C(F)(F)F)n(C)c2=O)c(F)cc1Cl [1-91] | 5 | 5 | 5 | 5 | 5 | 5 | 5 | 5 | 5 | 5 | 0 | 1 |  |  |  |  |  | 
Cc1cc(-c2ccc(C(F)(F)F)n(C)c2=O)c(F)cc1Cl [1-90] |  |  |  |  |  | 5 |  |  |  |  |  | 1 | 5 | 5 | 5 | 5 |  | 
CC(C)Sc1cc(-c2ccc(C(F)(F)F)n(C)c2=O)c(F)cc1Cl [1-43] |  |  |  |  |  | 5 | 5 | 5 | 5 | 5 |  | 0 | 5 | 5 | 5 | 5 |  | 
C#CCOc1cc(-c2ccc(C(F)(F)F)n(C)c2=O)c(F)cc1Cl [1-18] | 5 | 5 | 5 | 5 | 5 | 5 |  |  |  |  | 1 | 1 |  |  |  |  | 2 | 
Cc1cc2c(-c3cn(C)c(C(F)(F)F)cc3=O)c(F)cc(Cl)c2o1 [Compound No. 9-1, 5-(7-chloro-5-fluoro-2-methylbenzofuran-4-yl)-1-methyl-2-trifluoromethyl-4(1H)-pyridone] | 5 | 5 | 5 | 5 | 5 | 5 |  |  |  |  | 0 | 0 | 5 | 5 | 5 | 4 |  | 
Cn1c(C(F)(F)F)ccc(-c2cc(OCC(F)(F)F)c(Cl)cc2F)c1=O [1-155] | 5 | 5 | 5 | 5 | 5 | 5 |  |  |  |  | 0 | 0 | 5 | 5 | 5 | 5 |  | 
